Columns and labels:
[1] = solubility of THC in aqueous and ionic solutions; format: physicochemical
Text: Furthermore, THC is insoluble with many solutions, including aqueous and ionically charged solutions. An application of an ionic aqueous solution to a porous material will hinder the diffusion rate of THC through the material and decrease flux of cannabis. Therefore, an appropriate combination of porous THC absorbing material, combined with a solution that is insoluble with THC, can form a suitable rate control means. An example of such a rate controlling membrane includes mixing salt water with a porous rubber membrane that covers the cavity. The thickness of the porous rubber membrane, the concentration of the salt water, and the amount of available cannabis in the cavity are optimized experimentally to create a desired flux of THC to the patient's skin. Evaporation of necessary fluids may be prevented by a protective backing layer.

[2] = prior experimentation; cited from earlier work
[3] = from patch of Example A; human cadaver epidermis, 37 degree Celsius, seven days

For CCCCCc1cc(O)c2c(c1)OC(C)(C)[C@@H]1CCC(C)=C[C@@H]21 [THC, tetrahydrocannabinol], the “solubility with aqueous and ionically charged solutions” value [1] is given as “insoluble” and the “diffusion through porous materials such as rubber and plastic” value [2] is given as “diffuse rapidly”.
With CCCCCc1cc(O)c2c(c1)OC(C)(C)C1CCC(C)=CC21 (stereo not drawn) [delta 9 THC] the individual cannabinoid flux [3] was 4.5 micrograms per square centimeter per hour.
In the case of C=C(C)[C@@H]1CCC(C)=C[C@H]1c1c(O)cc(CCCCC)cc1O [CBD, cannabidiol], the individual cannabinoid flux [3] was 5.25 micrograms per square centimeter per hour.
With CCCCCc1cc(O)c2c(c1)OC(C)(C)c1ccc(C)cc1-2 [CBN, cannabinol] the individual cannabinoid flux [3] was 4.8 micrograms per square centimeter per hour.
For CCCCCc1cc(O)c2c(c1)OC(C)(C)C1CC=C(C)CC21 (stereo not drawn) [delta 8 THC], the individual cannabinoid flux [3] was 0.45 micrograms per square centimeter per hour.

Source: patent publication US6328992A, “Cannabinoid patch and method for cannabis transdermal delivery” (priority 2000, dated 2001)
